# Data published in publication PMC10924921, “Mi-2β promotes immune evasion in melanoma by activating EZH2 methylation” (Nature Communications, 2024).
# Legend:
# Assay in all cases: biochemical
# Parameters in all cases: KINOMEscan active-site competition binding panel (468 kinase assays), per cent of control at 1000 nM
# Conditions in all cases: KINOMEscan per cent of control (binding competition); read-out: Percent Control
# EPHA7 = EPHA7 (Homo sapiens, UniProt Q15375)
# Excerpt: (§1) Figure S7 / Percent Control
# INSR = INSR (Homo sapiens, UniProt P06213)
# Excerpt: as §1
# STK35 = STK35 (Homo sapiens, UniProt Q8TDR2)
# Excerpt: as §1
# CDK11 = target: T1, CDK11 (Homo sapiens, UniProt Q9BWU1)
# T1 construct: gene CDK19
# Excerpt: as §1
# HASPIN = HASPIN (Homo sapiens, UniProt Q8TF76)
# Excerpt: as §1
# MST3 = target: T2, MST3 (Homo sapiens, UniProt Q9Y6E0)
# T2 construct: gene STK24
# Excerpt: as §1
# SIK2 = SIK2 (Homo sapiens, UniProt Q9H0K1)
# Excerpt: as §1
# EPHB6 = EPHB6 (Homo sapiens, UniProt O15197)
# Excerpt: as §1
# MARK3 = MARK3 (Homo sapiens, UniProt P27448)
# Excerpt: as §1
# FGR = FGR (Homo sapiens, UniProt P09769)
# Excerpt: as §1
# YSK4 = target: T3, YSK4 (Homo sapiens, UniProt Q56UN5)
# T3 construct: gene MAP3K19
# Excerpt: as §1
# CDK8 = CDK8 (Homo sapiens, UniProt P49336)
# Excerpt: as §1
# [1] = target: T4, ABL1(H396P)-nonphosphorylated (Homo sapiens, UniProt P00519, H396P)
# T4 construct: nonphosphorylated
# Excerpt: as §1
# NEK9 = NEK9 (Homo sapiens, UniProt Q8TD19)
# Excerpt: as §1
# PAK2 = PAK2 (Homo sapiens, UniProt Q13177)
# Excerpt: as §1
# JNK3 = target: T5, JNK3 (Homo sapiens, UniProt P53779)
# T5 construct: gene MAPK10
# Excerpt: as §1
# EGFR(L861Q) = EGFR(L861Q) (Homo sapiens, UniProt P00533, L861Q)
# Excerpt: as §1
# FLT3(ITD,F691L) = FLT3(ITD,F691L) (Homo sapiens, UniProt P36888, F691L/ITD)
# Excerpt: as §1
# DMPK2 = target: T6, DMPK2 (Homo sapiens, UniProt Q6DT37)
# T6 construct: gene CDC42BPG
# Excerpt: as §1
# EGFR(G719S) = EGFR(G719S) (Homo sapiens, UniProt P00533, G719S)
# Excerpt: as §1
# SRC = SRC (Homo sapiens, UniProt P12931)
# Excerpt: as §1
# EGFR(S752-I759del) = EGFR(S752-I759del) (Homo sapiens, UniProt P00533, DEL752-759)
# Excerpt: as §1
# CDK2 = CDK2 (Homo sapiens, UniProt P24941)
# Excerpt: as §1
# CAMK2G = CAMK2G (Homo sapiens, UniProt Q13555)
# Excerpt: as §1
# INSR, sequence (P06213 whole entry): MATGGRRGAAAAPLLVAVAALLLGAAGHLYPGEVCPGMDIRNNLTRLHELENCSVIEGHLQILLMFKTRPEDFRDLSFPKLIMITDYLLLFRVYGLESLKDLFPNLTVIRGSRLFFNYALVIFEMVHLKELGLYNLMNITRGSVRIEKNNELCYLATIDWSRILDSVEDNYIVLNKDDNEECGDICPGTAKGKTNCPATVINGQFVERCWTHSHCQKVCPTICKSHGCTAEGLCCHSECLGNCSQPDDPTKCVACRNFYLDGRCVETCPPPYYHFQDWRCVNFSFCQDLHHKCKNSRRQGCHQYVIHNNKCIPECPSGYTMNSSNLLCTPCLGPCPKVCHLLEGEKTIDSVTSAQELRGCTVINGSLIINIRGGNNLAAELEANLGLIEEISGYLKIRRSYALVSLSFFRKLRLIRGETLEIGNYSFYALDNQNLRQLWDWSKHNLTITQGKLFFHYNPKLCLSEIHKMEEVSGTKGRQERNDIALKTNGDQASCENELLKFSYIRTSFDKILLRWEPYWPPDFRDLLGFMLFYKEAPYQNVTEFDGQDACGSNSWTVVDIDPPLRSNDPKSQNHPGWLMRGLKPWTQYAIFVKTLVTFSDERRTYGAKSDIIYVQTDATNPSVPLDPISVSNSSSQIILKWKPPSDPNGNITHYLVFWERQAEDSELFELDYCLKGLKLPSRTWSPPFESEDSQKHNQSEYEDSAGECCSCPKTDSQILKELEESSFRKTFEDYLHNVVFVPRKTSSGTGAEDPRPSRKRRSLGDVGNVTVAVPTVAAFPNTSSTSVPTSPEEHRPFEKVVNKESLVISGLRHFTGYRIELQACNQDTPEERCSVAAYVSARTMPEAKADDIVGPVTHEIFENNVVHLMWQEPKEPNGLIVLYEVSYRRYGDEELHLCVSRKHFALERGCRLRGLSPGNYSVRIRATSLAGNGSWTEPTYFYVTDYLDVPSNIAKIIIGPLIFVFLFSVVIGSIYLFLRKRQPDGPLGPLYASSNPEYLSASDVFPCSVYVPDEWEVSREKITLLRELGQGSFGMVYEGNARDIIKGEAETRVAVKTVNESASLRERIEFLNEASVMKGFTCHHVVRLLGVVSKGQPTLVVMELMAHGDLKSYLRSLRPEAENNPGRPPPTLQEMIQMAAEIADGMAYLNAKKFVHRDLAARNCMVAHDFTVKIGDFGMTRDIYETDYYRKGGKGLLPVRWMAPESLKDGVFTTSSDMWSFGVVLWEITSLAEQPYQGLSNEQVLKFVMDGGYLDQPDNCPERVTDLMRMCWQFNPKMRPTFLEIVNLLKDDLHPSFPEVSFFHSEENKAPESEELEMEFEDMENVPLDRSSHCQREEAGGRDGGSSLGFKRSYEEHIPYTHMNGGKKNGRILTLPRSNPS
# EGFR(L861Q), sequence (P00533 whole entry L861Q): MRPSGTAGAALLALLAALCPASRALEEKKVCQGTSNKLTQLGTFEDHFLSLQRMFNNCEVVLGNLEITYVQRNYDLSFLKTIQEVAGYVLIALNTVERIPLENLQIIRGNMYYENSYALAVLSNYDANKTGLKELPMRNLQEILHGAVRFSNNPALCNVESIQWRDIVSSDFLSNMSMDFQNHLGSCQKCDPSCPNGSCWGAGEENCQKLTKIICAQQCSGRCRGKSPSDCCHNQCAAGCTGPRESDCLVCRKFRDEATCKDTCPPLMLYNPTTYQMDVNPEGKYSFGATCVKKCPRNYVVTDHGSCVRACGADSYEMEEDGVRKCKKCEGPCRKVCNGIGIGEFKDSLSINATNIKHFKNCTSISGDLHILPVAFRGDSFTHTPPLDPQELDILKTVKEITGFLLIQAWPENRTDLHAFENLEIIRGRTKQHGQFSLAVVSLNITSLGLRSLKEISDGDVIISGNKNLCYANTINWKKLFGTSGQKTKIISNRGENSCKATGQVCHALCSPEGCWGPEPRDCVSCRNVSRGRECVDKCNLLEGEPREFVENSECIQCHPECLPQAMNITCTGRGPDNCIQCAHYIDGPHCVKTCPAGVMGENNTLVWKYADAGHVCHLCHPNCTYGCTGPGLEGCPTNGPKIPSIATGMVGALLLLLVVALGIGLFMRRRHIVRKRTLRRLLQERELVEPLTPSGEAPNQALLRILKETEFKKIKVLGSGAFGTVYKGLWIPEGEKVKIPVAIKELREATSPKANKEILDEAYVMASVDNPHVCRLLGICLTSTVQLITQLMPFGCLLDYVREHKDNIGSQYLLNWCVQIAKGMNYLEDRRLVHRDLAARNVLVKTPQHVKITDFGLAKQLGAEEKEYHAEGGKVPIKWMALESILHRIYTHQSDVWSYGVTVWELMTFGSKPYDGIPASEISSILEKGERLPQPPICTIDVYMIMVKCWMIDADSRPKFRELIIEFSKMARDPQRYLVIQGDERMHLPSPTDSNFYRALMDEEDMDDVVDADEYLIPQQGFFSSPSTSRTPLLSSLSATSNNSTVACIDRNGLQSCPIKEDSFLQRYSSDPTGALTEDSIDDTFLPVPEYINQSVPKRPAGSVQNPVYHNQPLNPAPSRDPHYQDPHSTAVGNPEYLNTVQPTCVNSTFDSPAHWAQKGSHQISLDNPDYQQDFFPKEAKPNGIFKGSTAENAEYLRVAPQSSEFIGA
# STK35, sequence (Q8TDR2 whole entry): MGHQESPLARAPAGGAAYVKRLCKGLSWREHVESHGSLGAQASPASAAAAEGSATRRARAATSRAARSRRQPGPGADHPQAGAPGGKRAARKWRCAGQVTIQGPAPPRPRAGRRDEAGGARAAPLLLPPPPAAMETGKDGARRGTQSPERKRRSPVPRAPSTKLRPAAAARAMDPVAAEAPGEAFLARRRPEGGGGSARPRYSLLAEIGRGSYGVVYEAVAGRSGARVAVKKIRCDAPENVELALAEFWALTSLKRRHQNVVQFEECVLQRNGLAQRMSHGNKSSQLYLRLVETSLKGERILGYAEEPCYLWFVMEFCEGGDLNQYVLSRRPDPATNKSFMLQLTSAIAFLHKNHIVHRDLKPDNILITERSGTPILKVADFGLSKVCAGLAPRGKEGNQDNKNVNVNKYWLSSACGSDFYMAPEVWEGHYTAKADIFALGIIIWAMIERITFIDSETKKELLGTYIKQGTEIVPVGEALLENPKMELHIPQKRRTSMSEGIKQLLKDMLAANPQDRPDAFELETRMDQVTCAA
# T5 sequence (P53779 whole entry): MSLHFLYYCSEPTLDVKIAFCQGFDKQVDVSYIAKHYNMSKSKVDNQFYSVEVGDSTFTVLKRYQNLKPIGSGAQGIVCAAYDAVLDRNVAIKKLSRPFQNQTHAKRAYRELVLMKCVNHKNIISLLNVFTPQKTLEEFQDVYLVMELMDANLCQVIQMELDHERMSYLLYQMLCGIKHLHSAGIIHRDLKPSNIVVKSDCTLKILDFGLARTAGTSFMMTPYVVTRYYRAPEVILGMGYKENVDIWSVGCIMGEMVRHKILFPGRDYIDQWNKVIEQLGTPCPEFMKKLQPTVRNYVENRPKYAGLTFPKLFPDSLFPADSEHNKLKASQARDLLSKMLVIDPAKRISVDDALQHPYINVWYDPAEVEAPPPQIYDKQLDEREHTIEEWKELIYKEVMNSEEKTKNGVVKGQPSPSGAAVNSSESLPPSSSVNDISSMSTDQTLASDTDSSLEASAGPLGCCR
# CAMK2G, sequence (Q13555 whole entry): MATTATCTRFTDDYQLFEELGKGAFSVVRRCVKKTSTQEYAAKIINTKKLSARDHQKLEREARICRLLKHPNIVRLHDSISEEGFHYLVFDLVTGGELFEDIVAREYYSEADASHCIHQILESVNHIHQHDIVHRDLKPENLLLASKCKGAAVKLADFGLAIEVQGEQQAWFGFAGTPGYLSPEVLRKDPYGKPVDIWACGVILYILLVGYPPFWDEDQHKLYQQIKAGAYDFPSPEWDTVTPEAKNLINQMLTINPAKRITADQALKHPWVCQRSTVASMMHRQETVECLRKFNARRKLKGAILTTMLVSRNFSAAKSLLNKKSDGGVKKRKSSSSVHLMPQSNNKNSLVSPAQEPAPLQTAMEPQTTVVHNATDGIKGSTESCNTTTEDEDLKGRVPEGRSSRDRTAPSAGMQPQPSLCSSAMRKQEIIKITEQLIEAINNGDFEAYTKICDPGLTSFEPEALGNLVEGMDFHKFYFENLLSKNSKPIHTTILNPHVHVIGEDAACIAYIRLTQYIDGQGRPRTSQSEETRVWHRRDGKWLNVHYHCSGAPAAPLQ
# FLT3(ITD,F691L), sequence (P36888 564-993 F691L): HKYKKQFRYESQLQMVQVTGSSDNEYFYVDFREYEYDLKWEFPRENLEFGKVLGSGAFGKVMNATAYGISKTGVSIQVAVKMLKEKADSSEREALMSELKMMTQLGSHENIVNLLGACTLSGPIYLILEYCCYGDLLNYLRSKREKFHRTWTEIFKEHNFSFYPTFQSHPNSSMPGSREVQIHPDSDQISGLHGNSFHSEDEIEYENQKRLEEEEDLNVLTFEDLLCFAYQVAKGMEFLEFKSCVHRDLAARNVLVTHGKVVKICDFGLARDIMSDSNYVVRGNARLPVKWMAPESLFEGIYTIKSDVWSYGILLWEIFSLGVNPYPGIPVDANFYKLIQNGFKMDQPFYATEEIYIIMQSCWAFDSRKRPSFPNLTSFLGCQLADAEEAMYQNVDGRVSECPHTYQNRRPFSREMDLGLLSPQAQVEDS
# T2 sequence (Q9Y6E0 whole entry): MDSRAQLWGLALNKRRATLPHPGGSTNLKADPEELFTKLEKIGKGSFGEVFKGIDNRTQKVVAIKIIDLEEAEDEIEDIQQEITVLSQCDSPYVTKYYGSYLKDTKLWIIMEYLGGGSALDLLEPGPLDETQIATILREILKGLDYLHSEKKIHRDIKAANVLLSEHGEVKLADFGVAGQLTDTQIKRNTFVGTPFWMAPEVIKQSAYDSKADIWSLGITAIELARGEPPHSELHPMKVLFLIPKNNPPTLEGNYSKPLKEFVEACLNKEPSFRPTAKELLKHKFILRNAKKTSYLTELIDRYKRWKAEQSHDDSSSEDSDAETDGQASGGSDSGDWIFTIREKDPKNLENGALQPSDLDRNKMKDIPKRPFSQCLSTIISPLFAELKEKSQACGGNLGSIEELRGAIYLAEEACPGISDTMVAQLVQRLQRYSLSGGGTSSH
smiles,measurement,setting,value
Cn1c(=O)[nH]c2ccc(-c3cccc(C(=O)NC4CCn5ccnc5C4)c3)cc21 (stereo not drawn) [Z36-MP5],remaining binding at 1 µM,EPHA7,93%
same,remaining binding at 1 µM,INSR,57%
same,remaining binding at 1 µM,STK35,81%
same,remaining binding at 1 µM,CDK11,82%
same,remaining binding at 1 µM,HASPIN,71%
same,remaining binding at 1 µM,MST3,96%
same,remaining binding at 1 µM,SIK2,81%
same,remaining binding at 1 µM,EPHB6,81%
same,remaining binding at 1 µM,MARK3,100%
same,remaining binding at 1 µM,FGR,85%
same,remaining binding at 1 µM,YSK4,85%
same,remaining binding at 1 µM,CDK8,55%
same,remaining binding at 1 µM,[1],69%
same,remaining binding at 1 µM,NEK9,83%
same,remaining binding at 1 µM,PAK2,63%
same,remaining binding at 1 µM,JNK3,100%
same,remaining binding at 1 µM,EGFR(L861Q),69%
same,remaining binding at 1 µM,"FLT3(ITD,F691L)",57%
same,remaining binding at 1 µM,DMPK2,99%
same,remaining binding at 1 µM,EGFR(G719S),85%
same,remaining binding at 1 µM,SRC,97%
same,remaining binding at 1 µM,EGFR(S752-I759del),55%
same,remaining binding at 1 µM,CDK2,91%
same,remaining binding at 1 µM,CAMK2G,55%
